Data as given in ChEMBL document CHEMBL3039007, “Structure-based identification of OATP1B1/3 inhibitors” (Mol Pharmacol, 2013).

Assays:
[1] = molecular target: T1, Solute carrier organic anion transporter family member 1B1 (Homo sapiens, UniProt Q9Y6L6); conditions: chinese hamster, cho, 10 µM
T1 sequence (Q9Y6L6 whole entry): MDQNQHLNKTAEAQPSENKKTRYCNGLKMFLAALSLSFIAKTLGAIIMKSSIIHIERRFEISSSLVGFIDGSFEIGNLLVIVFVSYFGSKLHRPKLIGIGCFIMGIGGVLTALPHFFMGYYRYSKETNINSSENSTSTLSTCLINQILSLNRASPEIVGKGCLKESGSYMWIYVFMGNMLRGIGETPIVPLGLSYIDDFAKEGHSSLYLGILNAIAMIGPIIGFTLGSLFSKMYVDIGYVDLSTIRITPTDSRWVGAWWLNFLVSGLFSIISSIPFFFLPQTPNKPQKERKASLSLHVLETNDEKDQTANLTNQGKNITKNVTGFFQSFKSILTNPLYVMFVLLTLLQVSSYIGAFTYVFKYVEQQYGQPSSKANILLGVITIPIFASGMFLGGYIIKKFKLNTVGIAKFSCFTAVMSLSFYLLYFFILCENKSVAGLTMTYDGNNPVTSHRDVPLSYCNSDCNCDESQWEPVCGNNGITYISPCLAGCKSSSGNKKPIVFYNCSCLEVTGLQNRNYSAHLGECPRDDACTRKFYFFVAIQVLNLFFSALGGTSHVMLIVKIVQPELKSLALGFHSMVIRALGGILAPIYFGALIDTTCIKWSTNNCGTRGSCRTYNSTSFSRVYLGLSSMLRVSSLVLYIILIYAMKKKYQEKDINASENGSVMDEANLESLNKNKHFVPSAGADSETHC

[2] = molecular target: T2, Solute carrier organic anion transporter family member 1B3 (Homo sapiens, UniProt Q9NPD5); conditions: chinese hamster, cho, 10 µM
T2 sequence (Q9NPD5 whole entry): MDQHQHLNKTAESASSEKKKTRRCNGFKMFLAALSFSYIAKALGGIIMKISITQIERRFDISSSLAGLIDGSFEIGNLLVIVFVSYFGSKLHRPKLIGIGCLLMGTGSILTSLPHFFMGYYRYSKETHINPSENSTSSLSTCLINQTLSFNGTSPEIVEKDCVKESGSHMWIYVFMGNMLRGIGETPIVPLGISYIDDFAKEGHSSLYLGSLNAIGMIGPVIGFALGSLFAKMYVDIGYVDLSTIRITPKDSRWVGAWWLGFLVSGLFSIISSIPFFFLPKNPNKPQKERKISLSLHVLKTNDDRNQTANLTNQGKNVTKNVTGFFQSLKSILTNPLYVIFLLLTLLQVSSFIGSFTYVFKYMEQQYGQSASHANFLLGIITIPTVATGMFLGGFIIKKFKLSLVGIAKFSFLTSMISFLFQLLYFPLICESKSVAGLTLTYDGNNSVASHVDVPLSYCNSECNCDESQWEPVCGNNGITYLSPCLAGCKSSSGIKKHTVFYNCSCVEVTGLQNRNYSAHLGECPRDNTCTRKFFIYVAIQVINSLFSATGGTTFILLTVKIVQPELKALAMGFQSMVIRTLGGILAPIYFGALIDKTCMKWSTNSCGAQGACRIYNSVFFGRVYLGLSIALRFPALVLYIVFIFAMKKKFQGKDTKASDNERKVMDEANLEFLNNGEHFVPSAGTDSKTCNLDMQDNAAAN

| SMILES | residual activity [1] [%] | residual activity [2] [%] |
| --- | --- | --- |
| CC(=O)OCC1=C(C(=O)[O-])N2C(=O)[C@@H](NC(=O)Cc3cccs3)[C@H]2SC1.[Na+] [CEPHALOTHIN SODIUM] | 45.11 | 66.3 |
| CC(=O)OCC1=C(C(=O)[O-])N2C(=O)[C@@H](NC(=O)CSc3ccncc3)[C@H]2SC1.[Na+] [CEPHAPIRIN SODIUM] | 85.65 | 94.33 |
| COc1ccc2cc1Oc1ccc(cc1)C[C@H]1c3c(cc4c(c3Oc3cc5c(cc3OC)CCN(C)[C@@H]5C2)OCO4)CCN1C [CEPHARANTHINE] | 91.94 | 125.1 |
| C/C=C(/C)C(=O)O[C@H]1CC[C@@]2(C)[C@@H]3CC[C@H]4[C@]5(O)C[C@H](O)[C@@]6(O)[C@@H](CN7C[C@@H](C)CC[C@H]7[C@@]6(C)O)[C@]5(O)C[C@@]42O[C@]13O [CEVADINE] | 78.54 | 84.71 |
| CCOC(=O)CCCCCCCCCCCCC1C=CCC1 (stereo unspecified) [CHAULMOOGRIC ACID, ETHYL ESTER] | 108.7 | 92.79 |
| O=C(O)CCCCCCCCCCCC[C@@H]1C=CCC1 [CHAULMOOGRIC ACID] | 83.53 | 82.39 |
| O=C(CCCCCCCCCCCCC1CCCC1)Nc1ccc(S(=O)(=O)c2ccc(NC(=O)CCCCCCCCCCCCC3CCCC3)cc2)cc1 [CHAULMOSULFONE] | 65.99 | 75.08 |
| CN1Cc2c(ccc3c2OCO3)C2C(O)Cc3cc4c(cc3C21)OCO4 (stereo not drawn) [CHELIDONINE (+)] | 59.5 | 82.29 |
| C[C@H](CCC(=O)O)[C@H]1CC[C@H]2[C@@H]3[C@H](O)C[C@@H]4C[C@H](O)CC[C@]4(C)[C@H]3CC[C@]12C [CHENODIOL] | 37.88 | 71.62 |
| O=C(O)CCCc1ccc(N(CCCl)CCCl)cc1 [CHLORAMBUCIL] | 123.9 | 102.7 |
| O=C1C(Cl)=C(Cl)C(=O)C(Cl)=C1Cl [CHLORANIL] | 80.53 | 74.83 |
| ClC1=C(Cl)C2(Cl)C3C(Cl)C(Cl)CC3C1(Cl)C2(Cl)Cl (stereo unspecified) [CHLORDANE] | 98.3 | 121.6 |
| CC(=O)O[C@]1(C(C)=O)CC[C@H]2[C@@H]3C=C(Cl)C4=CC(=O)CC[C@]4(C)[C@H]3CC[C@@]21C [CHLORMADINONE ACETATE] | 9.748 | 24.36 |
| CN1C(=O)CCS(=O)(=O)C1c1ccc(Cl)cc1 (stereo unspecified) [CHLORMEZANONE] | 97.47 | 92 |
| CC(=O)Oc1ccc(Cl)c2cccnc12 [CHLOROACETOXYQUINOLINE] | 90.22 | 92.5 |
| Cc1cc(O)ccc1Cl [CHLOROCRESOL] | 119.6 | 91.23 |
| O=C(/C=C/c1ccc(O)c(O)c1)O[C@@H]1C[C@](O)(C(=O)O)C[C@@H](O)[C@H]1O [CHLOROGENIC ACID] | 105.9 | 103.1 |
| Clc1ccc(C(c2ccc(Cl)cc2)C(Cl)(Cl)Cl)cc1 [CHLOROPHENOTHANE] | 124.5 | 116.2 |
| CCN(CC)CCCC(C)Nc1ccnc2cc(Cl)ccc12.O=P(O)(O)O.O=P(O)(O)O (stereo unspecified) [CHLOROQUINE PHOSPHATE] | 84.34 | 99.18 |
| N#Cc1c(Cl)c(Cl)c(Cl)c(C#N)c1Cl [CHLOROTHALONIL] | 92.97 | 81.58 |
| COc1ccc(C(Cl)=C(c2ccc(OC)cc2)c2ccc(OC)cc2)cc1 [CHLOROTRIANISENE] | 91.3 | 92.54 |
| Oc1c(Cl)cc(Cl)c2cccnc12 [CHLOROXINE] | 43.47 | 62.22 |
| Cc1cc(O)cc(C)c1Cl [CHLOROXYLENOL] | 116.8 | 121.1 |
| CN(C)CCCN1c2ccccc2Sc2ccc(Cl)cc21 [CHLORPROMAZINE] | 99.49 | 97.66 |

| SMILES | residual activity [1] [%] | residual activity [2] [%] |
| --- | --- | --- |
| CCCNC(=O)NS(=O)(=O)c1ccc(Cl)cc1 [CHLORPROPAMIDE] | 102 | 102.2 |
| CC(C)OC(=O)Nc1cccc(Cl)c1 [CHLORPROPHAM] | 104.8 | 107 |
| CN(C)CC/C=C1/c2ccccc2Sc2ccc(Cl)cc21.Cl [CHLORPROTHIXENE HYDROCHLORIDE] | 85.65 | 101.8 |
| CCOP(=S)(OCC)Oc1nc(Cl)c(Cl)cc1Cl [CHLORPYRIFOS] | 140 | 127.1 |
| Cc1ccc2c(Cl)cc(Cl)c(O)c2n1 [CHLORQUINALDOL] | 98.6 | 88.49 |
| CN(C)[C@@H]1C(O)=C(C(N)=O)C(=O)[C@@]2(O)C(O)=C3C(=O)c4c(O)ccc(Cl)c4[C@@](C)(O)[C@H]3C[C@@H]12.Cl [CHLORTETRACYCLINE HYDROCHLORIDE] | 128.8 | 95.91 |
| NS(=O)(=O)c1cc(C2(O)NC(=O)c3ccccc32)ccc1Cl (stereo unspecified) [CHLORTHALIDONE] | 62.41 | 67.04 |
| CC(C)CCC[C@@H](C)[C@H]1CC[C@H]2[C@@H]3CC=C4CC(=O)CC[C@]4(C)[C@H]3CC[C@]12C [CHOLEST-5-EN-3-ONE] | 119.6796 | 103.5 |
| CC(C)CCC[C@@H](C)[C@H]1CC[C@H]2[C@@H]3CC[C@H]4CC(=O)CC[C@]4(C)[C@H]3CC[C@]12C [CHOLESTAN-3-ONE] | 74.43 | 73.06 |
| CC(C)CCC[C@@H](C)[C@H]1CC[C@H]2[C@@H]3C[C@@H](O)[C@@]4(O)C[C@@H](O)CC[C@]4(C)[C@H]3CC[C@]12C [CHOLESTAN-3beta,5alpha,6beta-TRIOL] | 90.42 | 93.54 |
| CC(C)CCC[C@@H](C)[C@H]1CC[C@H]2[C@@H]3CC=C4C[C@@H](O)CC[C@]4(C)[C@H]3CC[C@]12C [CHOLESTEROL] | 95.51 | 100 |
| C[C@H](CCC(=O)O)[C@H]1CC[C@H]2[C@@H]3[C@H](O)C[C@@H]4C[C@H](O)CC[C@]4(C)[C@H]3C[C@H](O)[C@]12C [CHOLIC ACID] | 99.52 | 75.03 |
| C[N+](C)(C)CCO.[Cl-] [CHOLINE CHLORIDE] | 93.68 | 113.2 |
| O=C(O)c1cc(=O)c2ccccc2o1 [CHROMOCARB] | 133.6 | 93 |
| CCOC(=O)C1C(C=C(C)C)C1(C)C (stereo unspecified) [CHRYSANTHEMIC ACID, ETHYL ESTER] | 83.17 | 89.36 |
| CC(C)=CC1C(C(=O)O)C1(C)C (stereo unspecified) [CHRYSANTHEMIC ACID] | 83.79 | 97.37 |
| CC(C)=CC1C(CO)C1(C)C (stereo unspecified) [CHRYSANTHEMYL ALCOHOL] | 106.8 | 105.2 |
| COc1cc(OC)c2c(=O)cc(-c3ccccc3)oc2c1 [CHRYSIN DIMETHYL ETHER] | 112.1 | 103.1 |
| O=c1cc(-c2ccccc2)oc2cc(O)cc(O)c12 [CHRYSIN] | 115.4 | 129.1 |
| Cc1cc(O)c2c(c1)C(=O)c1cccc(O)c1C2=O [CHRYSOPHANOL] | 128.6 | 93.35 |
| Oc1cc(O)c2c(c1)O[C@H](c1ccc(O)c(O)c1)[C@@H](O)C2 [CIANIDANOL] | 72.87 | 92.34 |
| Cc1cc(C2CCCCC2)n(O)c(=O)c1.NCCO [CICLOPIROX OLAMINE] | 129.1 | 106 |
| O=C1CCc2cc(OCCCCc3nnnn3C3CCCCC3)ccc2N1 [CILOSTAZOL] | 207.2 | 98.73 |
| CN/C(=N/CCSCc1nc[nH]c1C)NC#N [CIMETIDINE] | 120.2 | 96.42 |
